Assay results: ChEMBL document CHEMBL1201862, “PubChem BioAssay data set” (2004)
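Dose response: 5 concentrations. Exposure: 48 h. Format: 96-well plates. Endpoint: linear interpolation; highest concentration if not reached. Abbreviation: GI50, concentration required for 50% inhibition of growth.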 Calls of active or inactive are those of the source. No stated cut-off is given here; in the data, active = GI50 up to about 1.1 µM and inactive = higher.

Key:
Test in all cases: growth of human tumour cells (NCI), 48 h
ACHN = test system: ACHN
DU-145 = test system: DU-145
HCT-116 = test system: HCT-116
SF-268 = test system: SF-268
UO-31 = test system: UO-31
BT-549 = test system: BT-549
SNB-19 = test system: SNB-19
U-251 = test system: U-251
SNB-75 = test system: SNB-75
MCF7 = test system: MCF7
Hs-578T = test system: Hs-578T
NCI-H460 = test system: NCI-H460
SW-620 = test system: SW-620
SR = test system: SR
PC-3 = test system: PC-3
DMS-273 = test system: DMS-273
HOP-18 = test system: HOP-18
SNB-78 = test system: SNB-78
XF498 = test system: XF498
M19-MEL = test system: M19-MEL

| SMILES | GI50 (ACHN) | GI50 (DU-145) | GI50 (HCT-116) | GI50 (SF-268) | GI50 (UO-31) | GI50 (BT-549) | GI50 (SNB-19) | GI50 (U-251) | GI50 (SNB-75) | GI50 (MCF7) | GI50 (Hs-578T) | GI50 (NCI-H460) | GI50 (SW-620) | GI50 (SR) | GI50 (PC-3) | GI50 (DMS-273) | GI50 (HOP-18) | GI50 (SNB-78) | GI50 (XF498) | GI50 (M19-MEL) |
| --- | --- | --- | --- | --- | --- | --- | --- | --- | --- | --- | --- | --- | --- | --- | --- | --- | --- | --- | --- | --- |
| O=C1C=CC(=O)c2ncccc21 | 2.63 µM (inactive) | 7.8 µM (inactive) | 1.89 µM (inactive) | 10.9 µM (inactive) | 4.43 µM (inactive) | 4.45 µM (inactive) | 6.17 µM (inactive) | 3.18 µM (inactive) | 5.36 µM (inactive) | 4.42 µM (inactive) | 10.2 µM (inactive) | 3.98 µM (inactive) | 1.93 µM (inactive) | 0.597 µM (active) | 9.82 µM (inactive) | – | – | – | – | – |
| c1ccc(Sc2nc(Sc3ccccc3)nc(Sc3ccccc3)n2)cc1 | 29.8 µM (inactive) | 21.1 µM (inactive) | 60.1 µM (inactive) | 32 µM (inactive) | 57 µM (inactive) | > 100 µM (inactive) | 31.8 µM (inactive) | 19.4 µM (inactive) | – | 26.5 µM (inactive) | 13.3 µM (inactive) | 47.6 µM (inactive) | – | > 100 µM (inactive) | 7.11 µM (inactive) | – | – | – | – | – |
| O=C(Nc1cccc2c1[nH]c1c(-c3ccccc3)nccc12)c1ccccc1[N+](=O)[O-] | 20.9 µM (inactive) | – | 26.4 µM (inactive) | 27.9 µM (inactive) | – | – | 59.8 µM (inactive) | 34.2 µM (inactive) | 29.7 µM (inactive) | – | – | 18.6 µM (inactive) | 41.2 µM (inactive) | 12.5 µM (inactive) | – | 4.88 µM (inactive) | > 100 µM (inactive) | 30.7 µM (inactive) | – | – |
| O=C(c1ccccc1)c1ccc2c(c1)N=C(c1ccc(Cl)c(Cl)c1)CC(c1ccc3ccccc3c1)N2 (stereo unspecified) | > 100 µM (inactive) | – | > 100 µM (inactive) | > 100 µM (inactive) | > 100 µM (inactive) | – | > 100 µM (inactive) | > 100 µM (inactive) | > 100 µM (inactive) | – | – | > 100 µM (inactive) | > 100 µM (inactive) | > 100 µM (inactive) | – | > 100 µM (inactive) | – | > 100 µM (inactive) | > 100 µM (inactive) | > 100 µM (inactive) |
| Nc1nc(=O)n(C2OC(CO)C(O)C2O)cc1F (stereo unspecified) | – | – | 0.495 µM (active) | 2.75 µM (inactive) | 10.3 µM (inactive) | – | 1.91 µM (inactive) | 3.72 µM (inactive) | – | 3.99 µM (inactive) | – | 0.102 µM (active) | 22.2 µM (inactive) | – | – | 4.36 µM (inactive) | 2.44 µM (inactive) | – | > 100 µM (inactive) | 0.731 µM (active) |
| c1ccc(P(CCP(c2ccccn2)c2ccccn2)c2ccccc2)cc1 | 23.3 µM (inactive) | 1.19 µM (inactive) | 0.0192 µM (active) | – | 33.3 µM (inactive) | 32.9 µM (inactive) | 0.498 µM (active) | 0.0578 µM (active) | 0.863 µM (active) | 0.0261 µM (active) | 7.67 µM (inactive) | 0.196 µM (active) | 3.51 µM (inactive) | 19.4 µM (inactive) | 0.0281 µM (active) | – | – | – | – | – |
| O=CNc1cccc2c3c([nH]c12)CCCCCC3 | – | – | > 100 µM (inactive) | > 100 µM (inactive) | > 82.4 µM (inactive) | – | > 100 µM (inactive) | > 100 µM (inactive) | > 93.1 µM (inactive) | > 100 µM (inactive) | – | > 100 µM (inactive) | > 100 µM (inactive) | – | – | > 100 µM (inactive) | > 100 µM (inactive) | > 92 µM (inactive) | > 77.1 µM (inactive) | > 100 µM (inactive) |
| O[C@H]1[C@H](O)[C@@H](O)CN2CC[C@H](O)[C@H]12 [CASTANOSPERMINE] | – | – | > 100 µM (inactive) | > 100 µM (inactive) | > 94.4 µM (inactive) | – | > 100 µM (inactive) | > 100 µM (inactive) | > 100 µM (inactive) | > 100 µM (inactive) | – | > 100 µM (inactive) | > 100 µM (inactive) | – | – | > 100 µM (inactive) | > 100 µM (inactive) | > 100 µM (inactive) | > 100 µM (inactive) | 32.8 µM (inactive) |
| C=CCCC1(C)CCCNC1=S (stereo unspecified) | > 100 µM (inactive) | – | > 100 µM (inactive) | – | > 100 µM (inactive) | – | > 100 µM (inactive) | > 100 µM (inactive) | > 100 µM (inactive) | – | – | > 100 µM (inactive) | > 100 µM (inactive) | > 100 µM (inactive) | – | > 100 µM (inactive) | > 100 µM (inactive) | – | > 100 µM (inactive) | – |
| Cn1c(-c2ccccc2)cc(-c2cccs2)c1-c1cccs1 | – | – | > 100 µM (inactive) | > 100 µM (inactive) | > 100 µM (inactive) | – | > 100 µM (inactive) | > 100 µM (inactive) | > 100 µM (inactive) | 24 µM (inactive) | – | 71.9 µM (inactive) | > 100 µM (inactive) | – | – | > 100 µM (inactive) | > 100 µM (inactive) | > 100 µM (inactive) | > 100 µM (inactive) | 83.2 µM (inactive) |
| COc1ccc(NC(=O)/C(Cc2cc(=O)oc3cc(O)ccc23)=N\NC(C)(C)C)c(OC)c1 | > 100 µM (inactive) | – | > 100 µM (inactive) | > 100 µM (inactive) | > 100 µM (inactive) | – | > 100 µM (inactive) | > 100 µM (inactive) | – | – | – | > 100 µM (inactive) | > 100 µM (inactive) | > 100 µM (inactive) | – | – | – | > 100 µM (inactive) | > 100 µM (inactive) | > 100 µM (inactive) |
| S=C1NN=C2C(=C3CCCC4C5CCCCC5N2C34)N1 (stereo unspecified) | > 100 µM (inactive) | > 100 µM (inactive) | – | > 100 µM (inactive) | > 100 µM (inactive) | > 100 µM (inactive) | > 100 µM (inactive) | – | – | 44.5 µM (inactive) | > 100 µM (inactive) | – | > 100 µM (inactive) | 83.4 µM (inactive) | – | – | – | – | – | – |
| CCCCNC(=O)C1C(=O)N(CCCC)C(=O)/C1=N\N (stereo unspecified) | > 100 µM (inactive) | – | > 100 µM (inactive) | > 100 µM (inactive) | > 100 µM (inactive) | – | > 100 µM (inactive) | > 100 µM (inactive) | > 100 µM (inactive) | – | – | > 100 µM (inactive) | > 100 µM (inactive) | – | – | > 100 µM (inactive) | > 100 µM (inactive) | > 100 µM (inactive) | > 100 µM (inactive) | > 100 µM (inactive) |
| COc1nc2ccc(Cl)c(C(O)c3ccccc3)c2nc1OC (stereo unspecified) | 30.2 µM (inactive) | 32.3 µM (inactive) | 16.2 µM (inactive) | 23.4 µM (inactive) | 22.1 µM (inactive) | 30.9 µM (inactive) | 24.9 µM (inactive) | 25.3 µM (inactive) | 33 µM (inactive) | 29.7 µM (inactive) | 14.9 µM (inactive) | 25.8 µM (inactive) | 26.7 µM (inactive) | 6.52 µM (inactive) | 26.5 µM (inactive) | – | – | – | – | – |
| COc1ccc(/C=C2\CCC(C)C3C2=NN(c2ccccc2)C3c2ccc(OC)c(OC)c2)cc1OC (stereo unspecified) | 3.84 µM (inactive) | 3.01 µM (inactive) | 2.07 µM (inactive) | 3.89 µM (inactive) | 6.12 µM (inactive) | 3.24 µM (inactive) | 8 µM (inactive) | 4.33 µM (inactive) | 1.18 µM (inactive) | 3.21 µM (inactive) | 7.29 µM (inactive) | – | 4.22 µM (inactive) | – | 3.5 µM (inactive) | – | – | – | – | – |
| CCC12CCC[C@@]13C=C[C@H](O3)C(C)(C)C2=O (stereo partly specified) | > 100 µM (inactive) | – | > 100 µM (inactive) | > 100 µM (inactive) | > 100 µM (inactive) | – | > 100 µM (inactive) | > 100 µM (inactive) | > 100 µM (inactive) | – | – | > 100 µM (inactive) | > 100 µM (inactive) | > 100 µM (inactive) | – | > 100 µM (inactive) | > 100 µM (inactive) | > 100 µM (inactive) | – | > 100 µM (inactive) |
| CN(C)CCNCc1c2ccccc2c(CNCCN(C)C)c2ccccc12 | – | – | 16.5 µM (inactive) | 27 µM (inactive) | > 100 µM (inactive) | – | – | 20.9 µM (inactive) | 43.6 µM (inactive) | 26 µM (inactive) | – | 27 µM (inactive) | 18 µM (inactive) | – | – | 34 µM (inactive) | 44.4 µM (inactive) | 41.8 µM (inactive) | 58.2 µM (inactive) | 24.5 µM (inactive) |
| COc1ccc(-c2oc3cc(O)cc(O)c3c(=O)c2OC)cc1 [ERMANIN] | 24.3 µM (inactive) | 27.2 µM (inactive) | 39.9 µM (inactive) | 22.1 µM (inactive) | 21.6 µM (inactive) | – | 32.7 µM (inactive) | 18 µM (inactive) | – | 38.5 µM (inactive) | – | 25.4 µM (inactive) | 31.2 µM (inactive) | 19.5 µM (inactive) | 31 µM (inactive) | – | – | – | – | – |
| CCN1CC2(CO)CCC(OC)C34C5CC6C(OC)CC(O)(C5C6OC)C(O)(C(OC)C23)C14 (stereo unspecified) | – | – | > 375 µM (inactive) | > 375 µM (inactive) | > 375 µM (inactive) | – | > 375 µM (inactive) | > 305 µM (inactive) | > 362 µM (inactive) | > 375 µM (inactive) | – | > 375 µM (inactive) | > 375 µM (inactive) | – | – | > 375 µM (inactive) | > 375 µM (inactive) | > 375 µM (inactive) | > 360 µM (inactive) | > 375 µM (inactive) |
